Results reported in US11285142B2, “Compositions and methods for identifying and treating dystonia disorders” (DUKE UNIVERSITY, priority 2015, dated 2022).
Entries after “also recorded” stand apart in the source; their conditions may differ. Peptide text beside a SMILES is read from it. * marks the point of attachment. Cbz = O=C(OCc1ccccc1)*

Tests used:
[1] = system: delta-E Torsin1a localization in Flp-In T-REx 293 cells expressing EGFP-delta-E Torsin1a; experiment: delta-E Torsin1a mis-localization assay (high-content imaging, % cells with EGFP puncta); format: cell-based, human; conditions: delta-E cell line; for percentage of cells with punctate EGFP-Torsin1a signal: MG132 10 μM, PBA 20 mM
Procedure: (§1) To limit variation in expression levels associated with random integration or transient expression, single copies of either WT or delta-E human TOR1A cDNAs with N-terminal EGFP fusions were inserted at the FRT site in Flp-In™ T-Rex™ 293 cells (Thermo Fisher Scientific #R780-07) via flippase recombinase-mediated cassette exchange according to the manufacturer's recommended protocols.
The cells were maintained at 37° C./5% CO2. All experiments were performed on cells with fewer than 5 passages.
Torsin1a expression was also controlled by tetracycline induction to avoid selective pressure modifying the cellular phenotypes. […] The mutant phenotype was measured as the percentage of cells with one or more EGFP puncta using automated high-content imaging analysis (see infra).
The image analysis algorithm was developed using the Cellomics ArrayScan V CompartmentAnalysisV2 protocol. Hoechst's nuclear staining (Ch1: excitation 350 nm; emission 461 nm) was used for focusing and for cell identification by nuclear size, shape, and intensity. […] Detected cells were gated according to nuclear area, length-to-width ratio, and perimeter-to-area ratio. For the purpose of analysis, cell bodies were defined by a radius of 10 μm from the outer edge of the defined nucleus. Overlapping cells were automatically segmented according to the Cellomics ArrayScanV CompartmentAnalysisV2 object segmentation feature. EGFP fluorescence (Ch2: excitation 488 nm; emission 509 nm) was used for puncta detection. […] Torsin1a puncta were identified using the spot detection feature of the Compartmental AnalysisV2 protocol. The percentage of cells containing one or more puncta was used as the primary metric in this assay.
(§2) In order to test this model directly, the delta-E Torsin1a cell line was treated with compounds targeting the eIF2-alpha signaling pathway (FIG. 2). […] The following day, serial drug dilutions were prepared at 2× final concentration in assay media containing 10 μg/mL tetracycline and 30 μL of the drug/tetracycline mixture was added to the appropriate wells, while control wells received 30 μL of assay media alone or assay media+10 μg/mL tetracycline (final tetracycline concentration for all wells except negative controls: 5 μg/mL). Cells were then incubated at 37° C./5% CO^2 for 48 hours and fixed, permeabilized, Hoechst stained, and imaged as described above. The range of the Torsin1a localization effect was normalized to the percentage of cells with puncta in vehicle-treated delta-E cell line as the maximum and that in WT cell line as the minimum (FIG. 2, panels c-h). Cell count and EGFP-Torsin1a expression were normalized to their respective values in the vehicle-treated delta-E cell line as the maximum. All dose response data are the average of 4 independent experiments per dose. Untreated control data used for normalization are the average of 24 independent experiments.

[2] = system: WT Torsin1a localization in Flp-In T-REx 293 cells expressing EGFP-WT Torsin1a; experiment: Torsin1a localization assay in WT Torsin1a-expressing assay cell line; format: cell-based, human; conditions: WT cell line; MG132 10 μM, PBA 20 mM
From the text: To develop an assay capable of detecting conditions that correct a dystonia cellular phenotype, two human cell lines were generated that stably expressed EGFP-tagged human wild-type Torsin 1A, or delta-E Torsin1a, from a single cDNA copy integrated at a defined genomic site (FIG. 1, panel 1).
as §1, with “protocols. This system includes an inducible expression feature (TetON) that avoids selective pressure for potential toxic effects of chronic expression of mutant proteins (FIG. 1, panel 1). […]” for “protocols.”
This approach provides control over expression levels, avoiding the wide variation typically seen with random genomic integration or transient expression approaches. […] The mutant phenotype was measured as the percentage of cells with one or more EGFP puncta using automated high-content imaging analysis (see infra).
Development and validation of the high-content image analysis and assay performance under high-throughput screening conditions is presented in FIG. 9. […] Automated exposure times for each plate were determined by setting a target saturation of 25% in channel 1 in wells containing tetracycline-induced delta-E cells. Detected cells were gated according to nuclear area, length-to-width ratio, and perimeter-to-area ratio. […] EGFP fluorescence (Ch2: excitation 488 nm; emission 509 nm) was used for puncta detection. Automated exposure times for each plate were determined by setting a target saturation of 35% in channel 2 in wells containing induced delta-E cells. […]

[3] = system: Flp-In T-REx 293 cells expressing delta-E Torsin1a; experiment: Cytotoxicity (cell count, cellular morphology) in the Torsin1a assay cell line; format: cell-based, human; conditions: at effective concentrations
Procedure: as §2
Efficacy is calculated as the magnitude of the pathology correction relative to the mutant Torsin1a pathology. For example an efficacy=−100% would be equivalent to the WT TorsinA phenotype, and 0% would be equivalent to the Mutant TorsinA phenotype. CCv2 refers to the dose response Curve Class annotation, and AC refers to Active Concentration.

[4] = system: homozygous DYT1 (delta-E Torsin1a) knock-in mice; experiment: Perinatal survival of homozygous DYT1 knock-in mice after in utero exposure; format: in vivo, mouse
Procedure: The findings above support a role for the eIF2-alpha signaling pathway in normalizing in vitro cellular phenotypes related to the DYT1 genotype. Next, the effect of targeting eIF2-alpha signaling on the deleterious consequences of the DYT1 TorsinA mutation was determined in vivo. Etiological mouse models of DYT1 dystonia have not had robust dystonic phenotypes. (Tanabe, L. M., et al., (2012) PloS One 7, e32245; Camargos, S. et al., (2008) Lancet. Neurol. 7, 207-15; Seibler, P. et al. (2008) Lancet. Neurol. 7, 380-1.) Nonetheless, another deleterious genotype-dependent effect of the mutation on the animal-neonatal lethality of homozygous delGAG knock-in mice—facilitated interrogation of the impact of eIF2-alpha targeting in vivo (FIG. 4a). (Seibler, P. et al. (2008) Lancet. Neurol. 7, 380-1; Goodchild, R. E., et al, (2005) Neuron 48, 923-32.)
Pairs of heterozygous delta-E Torsin1a knock-in breeders (courtesy of Dr. W. Dauer, University of Michigan) were randomly assigned to vehicle or salubrinal treatment groups. Starting 10 days after breeding cages were established, each female mouse was given a daily subcutaneous injection of vehicle or salubrinal at approximately 6 p.m. Cages were checked for new pups three times per day: morning (˜8 a.m.), early afternoon (˜2 p.m.), and during injections (˜6 p.m.). In order to minimize stress and the possibility of litter abandonment, mice with newborn pups were not given injections. Newborn pups were identified by marking limbs with a permanent laboratory marker, and tail samples were taken for genotyping at P0. At approximately P0.5, cages were checked again, and the status of each pup was recorded. If pups were first observed at the 8 am check, the 2 pm check was considered P0.5. If pups were first observed at the 2 pm or 6 pm checks, an additional check was performed at approximately midnight, and considered P0.5. Mortality was also tracked the following day, after which time identifying marks were predominately washed off or obscured by fur. […]

Structure (SMILES): CC(C)C[C@@H](C=O)NC(=O)[C@H](CC(C)C)NC(=O)[C@H](CC(C)C)NC(=O)OCc1ccccc1 [MG132] (Cbz-Leu-Leu-Leu-aldehyde)
- percentage of cells with punctate EGFP-Torsin1a signal [1]: significantly increased
- percentage of cells with punctate EGFP-Torsin1a signal [2]: significantly increased

Structure (SMILES): O=C(O)CCCc1ccccc1 [PBA, phenylbutyric acid]
- percentage of cells with punctate EGFP-Torsin1a signal [1]: ameliorated the burden of cells with punctate pathology
- percentage of cells with punctate EGFP-Torsin1a signal [2]: ameliorated the burden of cells with punctate pathology

Structure (SMILES): O=C(/C=C/c1ccccc1)NC(NC(=S)Nc1cccc2cccnc12)C(Cl)(Cl)Cl (centres unmarked) [Salubrinal]
- EC50 ([1]; Homo sapiens, Flp-In-T-REx-293, 48 hours, dose response, read-out: EC50 of normalization of delta-E Torsin1a localization): 2.12 µM
- effect on delta-E Torsin1a localization (in words) ([1]; dose response): robust dose-dependent normalization
- efficacy on delta-E Torsin1a localization ([1]; normalized to vehicle delta-E (max) and WT (min)): 66.4%
- toxicity (cell count, cellular morphology; in words) [3]: without modifying steady-state EGFP-Torsin1a levels or significant toxicity
- perinatal survival / mortality of homozygous delta-E/delta-E pups ([4]; 3.3 mg/kg subcutaneous daily to pregnant dams from about embryonic day 10 through delivery, vs vehicle): dramatically reduced the mortality; also recorded: improves perinatal survival
- mortality of wildtype or heterozygote pups ([4]; 3.3 mg/kg subcutaneous daily to pregnant dams, treatment vs control): no mortality differences
- homozygous delta-E Torsin1a pups that survived through the second postnatal day ([4]; in utero exposure, no vehicle-treated homozygous pups survived the first postnatal day): two
